This is an account of results in patent US20130196996A1, “USE OF ISOXAZOLINE COMPOUNDS AND COMPOSITIONS IN BLADDER CANCER” (CPSI STOCKHOLDER TRUST, priority 2010, published 2013).

“And” between values parts separate entries of the source, which are not always exact repeats. Identical values can stand only once.

Data set [1] can be described thus: Body weight, general health and survival of BBN mice, Experiment 1. Type of data set: in vivo. As to the method: (§1) All animals received BBN(N-butyl-N-(4-hydroxybutyl)-nitrosamine, TCI America, Portland, Oreg.) 0.05% in water in brown bottles for 22 weeks. BBN is known to induce cancer in the bladder. Mice were treated with either the CPSI compounds or vehicle for weeks 16-22. Timing of dosing was intended to correspond with the timeframe of tumor progression from CIS to invasive disease, as determined in prior experiments.
(§2) Thirty 3-month old male mice (n=10/group) were gavage fed either vehicle (PEG 300, methylcellulose) (control group), CPSI-2705, or CPSI-1306 at 25 mg/kg for weeks 16-22.
Animals were inspected daily for general health with weights recorded at least biweekly and more frequently in the last several weeks based on recorded weight loss. Animals were euthanized by CO2 inhalation and cervical dislocation. Bladders were harvested, weighed, placed in PBS/formaldehyde for 24 hours and then transferred to PBS. Upper tracts (kidney and ureters) were inspected for hydronephrosis. Bladders were assessed for tumor stage and grade and amount of pathologic involvement with invasive disease. […] Bladders were step sectioned, embedded in paraffin, serially sectioned and stained with H&E and assessed for tumor stage and grade and amount of pathologic involvement with invasive disease. […]

The test system of data set [2] is BBN model of bladder cancer. In words: BBN model of bladder cancer, Experiment 1: bladder weight and pathology after oral gavage. It counts as in vivo, C57Bl/6 mice. As to conditions: for average bladder weight: Experiment 1, 25 mg/kg gavage weeks 16-22, control 0.5±0.5 gm; for mean of tissue involved with invasive disease (tumor burden) / upper tract obstruction (hydro-ureteronephrosis) at euthanasia: Experiment 1, 25 mg/kg gavage; for mean of tissue involved with invasive disease (tumor burden): SD ±30% (2705), ±32% (1306), control 81%; for upper tract obstruction (hydro-ureteronephrosis) at euthanasia: majority of control animals obstructed; for mean percentage of tumors representing invasive disease (FIG. 4E) / representative bladder tumor stage on H&E pathology: Experiment 1, 25 mg/kg; for mean percentage of tumors representing invasive disease (FIG. 4E): in words; for representative bladder tumor stage on H&E pathology: vehicle group infiltrative pT3 cancer; for Pieces involved / Pieces involved, in situ % / Pieces involved, inv % (invasive) / Squamous met and normal: Table 1, individual animal bladders, 25 mg/kg gavage weeks 16-22, 25 mg/kg. As to the method: (§3) Three-month old C57Bl/6 mice were purchased from Jackson Laboratories (Bar Harbor, Me.) and Charles River (Wilmington, Mass.). The animals were maintained at the University of Connecticut Center for Laboratory Animal Care under National Institutes of Health guidelines. All procedures were approved by an institutional animal care committee. The mice were housed in a controlled environment with a 12 hour light-12 hour dark cycle and provided food and water ad libitum.
as §1, §2
(§4) Animals were inspected daily for general health with weights recorded at least biweekly and more frequently in the last several weeks based on recorded weight loss. Animals were euthanized by CO2 inhalation and cervical dislocation. Bladders were harvested, weighed, placed in PBS/formaldehyde for 24 hours and then transferred to PBS. Upper tracts (kidney and ureters) were inspected for hydronephrosis. Bladders were assessed for tumor stage and grade and amount of pathologic involvement with invasive disease. Bladders were sectioned in the mid-sagital plane, laid flat on the medial surface and step sectioned for whole mount pathologic analysis. Haematoxylin and eosin (H&E) staining was carried out to assess for histology and pathology. Bladders were step sectioned, embedded in paraffin, serially sectioned and stained with H&E and assessed for tumor stage and grade and amount of pathologic involvement with invasive disease. A single pathologist reviewed all slides in a blinded manner to provide a pathological diagnosis. As a tumor develops in the bladder, the size and weight of the bladder increases. Bladder weight is therefore a useful surrogate for bladder tumor burden, representing the relative amount of bladder tumor that develops during continual exposure to the carcinogen, BBN.
(§5) Values shown are means±SEM. […] Statistical analysis was performed using SPSS® version 2.03 (San Rafael, Calif.). Differences were examined by one-way analysis of variance (ANOVA) followed by the post-hoc Dunnett's test.

Data set [3] has as its system BBN model of bladder cancer. Briefly: BBN model of bladder cancer, Experiment 2: escalating dose of CPSI-1306. Type of data set: in vivo, C57Bl/6 mice. As to conditions: for mean bladder weights at euthanasia as surrogate for tumor volume, effect vs vehicle: p<0.05 Dunnett post-hoc. As to the method:
as §3, §1
Sixty 3-month old male mice (n=˜8/group) were gavage fed an escalating dose of CPSI-1306 (0.001, 0.01, 0.1, 1.0, 10 or 25 mg/kg) or vehicle (PEG 400, H2O) for weeks 16-22.
as §4, §5

Setting [4] is: Experiment 2, dose escalation, in words.

With `O=C(C[C@H]1CC(c2ccc(F)cc2F)=NO1)N1CCOCC1` [CPSI-1306], the “general health appearance during drug treatment” value in data set [1] (Experiment 1, 25 mg/kg gavage, compared to the other two treatment arms) is “appeared healthier”. In addition, in data set [2], the average bladder weight is reported as 0.2±0.2 gm, the “mean of tissue involved with invasive disease (tumor burden)” value turned out to be 59%, the “upper tract obstruction (hydro-ureteronephrosis) at euthanasia” value was “none seen” and the “mean percentage of tumors representing invasive disease (FIG. 4E)” value is given as “Smaller tumors with a smaller percentage of invasiveness”. In addition, in data set [2], the “representative bladder tumor stage on H&E pathology” value is “focal pT3 with areas of normal mucosa”; the Pieces involved is 4 (6×) and 2 and 7 and 6 and 3 − inv, 1 − in situ; the “Pieces involved, in situ %” value was 5% (2×) and (15 + 15%) and 10% (2×) and 15%; the “Pieces involved, inv % (invasive)” value is 25% and (15 + 15%) and (20%) and (90%) (2×) and (95%) and 35% and 70% and 80% and 65%. Moreover, the “Squamous met and normal” value in data set [2] is 70% (2×) and 80% and 10% (3×) and <5% and 55% and 25% and 20%. For the same compound, the “mean bladder weight, fold less than control group” value in data set [2] (Experiment 1, FIG. 1, p=0.06) is listed as 2.5 fold. Besides, in data set [3] (Experiment 2, 0.1 mg/kg gavage weeks 16-22), the “mean bladder weights at euthanasia as surrogate for tumor volume, effect vs vehicle” value was “significant effect”. Besides, the “mean bladder weights at euthanasia as surrogate for tumor volume, effect vs vehicle” value in data set [3] (Experiment 2, 1.0 mg/kg gavage weeks 16-22) was “significant effect”. Besides, in data set [3] (setting [4]), the “mean percentage of tumor representing invasive disease (FIG. 5B)” value is “Smaller tumors with a smaller percentage of invasiveness” and the “percentage of bladders in each dosing group with each pathologic stage (FIG. 5A)” value is “A decrease in the percentage of higher stage tumors”.
Turning to `CN(C(=O)C[C@H]1CC(c2ccc(Cl)cc2)=NO1)C1CCCCC1` [CPSI-2705], the “animals died prior to completion of the study” value in data set [1] (Experiment 1, n=10/group, 25 mg/kg gavage, control also two) was “Two”. Moreover, in data set [2], the average bladder weight came out at 0.3±0.3 gm, the “mean of tissue involved with invasive disease (tumor burden)” value stood at 62%, the “upper tract obstruction (hydro-ureteronephrosis) at euthanasia” value is listed as “Fewer animals were noted to have obstruction” and the “mean percentage of tumors representing invasive disease (FIG. 4E)” value is given as “Smaller tumors with a smaller percentage of invasiveness”. Besides, in data set [2], the “representative bladder tumor stage on H&E pathology” value was “pT1 disease”; the Pieces involved was 8 (3×) and 2 (2×) and 6 and 4 (2×) and 1 − inv, 3 − in situ and 10; the “Pieces involved, in situ %” value was 10% (2×) and 5% (2×) and 20%; the “Pieces involved, inv % (invasive)” value was 80% and 85% and (60%) and (70%) and 60% and (30%) and 10% and 30% and (95%) (2×). Besides, the “Squamous met and normal” value in data set [2] is 10% (2×) and 40% and 30% (2×) and 70% (2×) and 65% and <5% (2×).
